Reference: US20020127544A1, “Modulators of US 28” (priority 2000, published 2002)
Structures can show the parent of a compound that is named as a salt. Where two headings read alike, the source gives them in different places.

B1: Fractalkine: the CX3C chemokine, ligand of US28 (protein, UniProt P78423 25-397, looked up)
Fractalkine: QHHGVTKCNITCSKMTSKIPVALLIHYQQNQASCGKRAIILETRQHRLFCADPKEQWVKDAMQHLDRQAAALTRNGGTFEKQIGEVKPRTTPAAGGMDESVVLEPEATGESSSLEPTPSSQEAQRALGTSPELPTGVTGSSGTRLPPTPKAQDGGPVGTELFRVPPVSTAATWQSSAPHQPGPSLWAEAKTSEAPSTQDPSTQASTASSPAPEENAPSEGQRVWGQGQSPRPENSLEREEMGPVPAHTDAFQDWGPGSMAHVSVVPVSSEGTPSREPVASGSWTPKAEEPIHATMDPQRLGVLITPVPDAQAATRRQAVGLLAFLGLLFCLGVAMFTYQSLQGCPRKMAGEMAEGLRYIPRSCGSNSYVLVPV

Assays:
US28 [1] = biological target: T1, US28 (Human cytomegalovirus, UniProt P69332); experiment: 125I-fractalkine radioligand binding to US28 on US28-NSO cells; design: host or cells: mouse NSO cells (US28-NSO); species or system Cytomegalovirus (CMV)
Description: The US28 expressing cells used in most assays consist of a mouse cell line (NSO cells from ATCC) stably expressing transfected US28 cDNA under the control of a CMV promoter (from R & D Systems). These cells were cultured in IMDM-5% FBS, and harvested when the concentration was between 0.5-1.0×10^6 cells/mL. Some assays were performed with adherent human 293 cells (US28-293 cells) or membranes. The cells were centrifuged and resuspended in assay buffer (20 mM HEPES, 140 mM NaCl, 1 mM CaCl2, 5 mM MgCl2, and with 0.2% bovine serum albumin) to a concentration of 5.6×10^6 cells/mL. Using the Multi-Probe automated system, set up with 8 assay plates at a time, first 0.09 mL of cells was added to the assay plates containing the compounds. The final concentration of the compounds was 5 μg/mL each. Then 0.09 mL of ^1251I-fractalkine diluted in assay buffer (final concentration ˜2-10fM, with ˜30,000 cpm per well) was added, the plates sealed and incubated for approximately 3 hours at 4 degrees C on a shaker platform. […] Scintillation fluid (35 μL) was added to all wells, the plates were sealed and counted in a Top Count scintillation counter. […]
Methiothepin mesylate (from the RBI division of Sigma Chemical Co., St. Louis, Mo., USA, Catalog No. M-149) and octoclothepin maleate (from RBI, Catalog No. O-111) were evaluated in the assays described in Examples 1 and 2. […]

US28 [2] = biological target: T1, US28; experiment: cytoplasmic calcium mobilization in US28-293 cells; type: cell-based, Cytomegalovirus (CMV); design: expressed in transfected cells; host or cells: human 293 cells (US28-293); settings: INDO-1 dye, mimicking the action of fractalkine in binding and signaling (FIG. 2)
Description: For each test, 1×10^6 cells were incubated at 37° C. in the cuvette of a PTI spectrometer, and the ratio of 410/490 nm emission plotted over time (typically 2-3 minutes), with compounds added at 5 seconds, followed by fractalkine at 60 seconds. […] Compounds which inhibited fractalkine binding were tested in this assay for the effects on Ca2+ in this system.
Methiothepin mesylate (from the RBI division of Sigma Chemical Co., St. Louis, Mo., USA, Catalog No. M-149) and octoclothepin maleate (from RBI, Catalog No. O-111) were evaluated in the assays described in Examples 1 and 2. The IC50 values were 0.3 μM for methiothepin mesylate and 0.7 μM for octoclothepin maleate.

US28 [3] = biological target: T1, US28; design: host or cells: mouse NSO cells (US28-NSO); settings: CX3C chemokine binding to US28; read-out: KI, binding affinity to US28; cited from earlier work

T1 sequence (P69332 whole entry): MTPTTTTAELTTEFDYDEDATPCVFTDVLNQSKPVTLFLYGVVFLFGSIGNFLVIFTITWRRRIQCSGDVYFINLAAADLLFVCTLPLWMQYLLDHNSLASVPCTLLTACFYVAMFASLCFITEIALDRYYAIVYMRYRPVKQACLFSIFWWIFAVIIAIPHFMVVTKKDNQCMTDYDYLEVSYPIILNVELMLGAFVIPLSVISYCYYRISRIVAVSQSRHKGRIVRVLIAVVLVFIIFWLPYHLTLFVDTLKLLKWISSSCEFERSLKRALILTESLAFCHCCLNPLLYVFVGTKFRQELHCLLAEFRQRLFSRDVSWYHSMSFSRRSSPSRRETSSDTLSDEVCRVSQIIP

Molecule | IC50 (US28 [1]; dose response against fractalkine on US28-NSO cells (FIG. 1), read-out: IC50, inhibition of fractalkine binding to US28) [nM] | mode of action in calcium mobilization (US28 [2]) | IC50 (US28 [1]) [nM] | Ki (US28 [3]) [nM]
CN1CCN(C2Cc3ccccc3Sc3ccc(Cl)cc32)CC1.O=C(O)/C=C\C(=O)O (centres unmarked) [octoclothepin maleate, octoclothepin] | 700 | competitive agonists | – | –
CSc1ccc2c(c1)C(N1CCN(C)CC1)Cc1ccccc1S2 (centres unmarked) [methiothepin mesylate, methiothepin] | – | competitive agonists | 300 | –
B1 | – | – | – | ~0.05
